Measurements from PubChem BioAssay (NCI).
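Tested at 5 concentrations; 48 h exposure; 96-well plates; endpoints linearly interpolated, else capped at highest concentration. Definition used: TGI = concentration required for complete inhibition of growth.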

Assays:
Test in all cases: DTP human tumour cell line panel, 48 h
[1] = system: SK-MEL-28 melanoma
[2] = system: U251 CNS
[3] = system: HL-60(TB) leukemia
[4] = system: OVCAR-3 ovarian
[5] = system: OVCAR-8 ovarian
[6] = system: TK-10 renal
[7] = system: MDA-MB-435
[8] = system: MCF7 breast
[9] = system: NCI-H522 lung
[10] = system: ACHN renal
[11] = system: COLO 205 colon
[12] = system: HCT-15 colon
[13] = system: KM12 colon
[14] = system: PC-3 prostate
[15] = system: EKVX NSCLC
[16] = system: NCI-H460 lung
[17] = system: MOLT-4 leukemia
[18] = system: SK-MEL-5 melanoma
[19] = system: NCI-H226 lung
[20] = system: HCT-116 colon
[21] = system: MDA-N
[22] = system: LOX IMVI melanoma
[23] = system: HOP-92 NSCLC
[24] = system: HOP-62 NSCLC
[25] = system: MDA-MB-231 breast
[26] = system: HT29 colon
[27] = system: 786-0 renal
[28] = system: A498 renal
[29] = system: SF-539 CNS
[30] = system: UACC-62 melanoma
[31] = system: SNB-19 CNS
[32] = system: UACC-257 melanoma
[33] = system: OVCAR-5 ovarian
[34] = system: OVCAR-4 ovarian
[35] = system: IGROV1 ovarian
[36] = system: SF-295 CNS
[37] = system: CCRF-CEM leukemia
[38] = system: RXF 393 renal
[39] = system: HS 578T breast
[40] = system: RPMI-8226 leukemia
[41] = system: NCI/ADR-RES ovarian
[42] = system: SF-268 CNS
[43] = system: UO-31 renal
[44] = system: SW-620 colon
[45] = system: BT-549 breast
[46] = system: T-47D breast
[47] = system: SN12C renal
[48] = system: DU-145 prostate
[49] = system: SK-OV-3 ovarian
[50] = system: SK-MEL-2 melanoma
[51] = system: CAKI-1 renal
[52] = system: MALME-3M melanoma
[53] = system: SNB-75 CNS
[54] = system: A549 NSCLC
[55] = system: M14 melanoma
[56] = system: K-562 leukemia
[57] = system: SR leukemia
[58] = system: NCI-H23 lung
[59] = system: HCC-2998 colon

For `OC1OC(c2ccc[nH]2)C(F)(F)C(F)(F)C1(F)F` (configuration not stated), the TGI [1] was > 100 µM, the TGI [2] was > 100 µM and the TGI [3] was > 100 µM. The TGI [4] was > 100 µM, the TGI [5] was > 100 µM and the TGI [6] was > 100 µM. The TGI [7] was > 100 µM, the TGI [8] was > 100 µM and the TGI [9] was > 100 µM. The TGI [10] was > 100 µM, the TGI [11] was > 100 µM and the TGI [12] was > 100 µM. For the same molecule, the TGI [13] was > 100 µM, the TGI [14] was > 100 µM and the TGI [15] was > 100 µM. For the same molecule, the TGI [16] was > 100 µM, the TGI [17] was > 100 µM and the TGI [18] was > 100 µM. The TGI [19] was > 100 µM, the TGI [20] was > 100 µM and the TGI [21] was > 100 µM. For the same molecule, the TGI [22] was > 100 µM, the TGI [23] was > 100 µM and the TGI [24] was > 100 µM. The TGI [25] was > 100 µM, the TGI [26] was > 100 µM and the TGI [27] was > 100 µM. The TGI [28] was > 100 µM, the TGI [29] was > 100 µM and the TGI [30] was > 100 µM. The TGI [31] was > 100 µM, the TGI [32] was > 100 µM and the TGI [33] was > 100 µM. The TGI [34] was > 100 µM, the TGI [35] was > 100 µM and the TGI [36] was > 100 µM. For the same molecule, the TGI [37] was > 100 µM, the TGI [38] was > 100 µM and the TGI [39] was > 100 µM. For the same molecule, the TGI [40] was > 100 µM, the TGI [41] was > 100 µM and the TGI [42] was > 100 µM. For the same molecule, the TGI [43] was > 100 µM, the TGI [44] was > 100 µM and the TGI [45] was > 100 µM. For the same molecule, the TGI [46] was > 100 µM, the TGI [47] was > 100 µM and the TGI [48] was > 100 µM. For the same molecule, the TGI [49] was > 100 µM, the TGI [50] was > 100 µM and the TGI [51] was > 100 µM. The TGI [52] was > 100 µM, the TGI [53] was > 100 µM and the TGI [54] was > 100 µM. The TGI [55] was > 100 µM.

With `O=C1CS(=O)(=O)C(c2cccc(Oc3ccccc3)c2)N1c1cccc(Cl)c1Cl` (configuration not stated) the TGI [1] was > 100 µM, the TGI [2] was 37.4 µM and the TGI [3] was 82.9 µM. The TGI [4] was 57.3 µM, the TGI [5] was 60.1 µM and the TGI [6] was 67.3 µM. The TGI [7] was 48.8 µM, the TGI [8] was 21.2 µM and the TGI [9] was 39.4 µM. For the same molecule, the TGI [10] was 43.6 µM, the TGI [11] was 67.8 µM and the TGI [13] was > 100 µM. For the same molecule, the TGI [14] was 89.9 µM, the TGI [15] was 83.7 µM and the TGI [56] was 46 µM. The TGI [16] was > 100 µM, the TGI [17] was 58.9 µM and the TGI [18] was 42.6 µM. The TGI [19] was > 100 µM, the TGI [20] was 40.9 µM and the TGI [21] was 49.7 µM. The TGI [22] was 47.7 µM, the TGI [23] was 41.6 µM and the TGI [24] was > 100 µM. For the same molecule, the TGI [25] was 70.6 µM, the TGI [26] was 71.2 µM and the TGI [27] was 32.7 µM. For the same molecule, the TGI [29] was 46.6 µM, the TGI [30] was 30.7 µM and the TGI [31] was > 100 µM. The TGI [32] was 51.2 µM, the TGI [33] was > 100 µM and the TGI [34] was 78.9 µM. For the same molecule, the TGI [36] was > 100 µM, the TGI [37] was > 100 µM and the TGI [38] was 66.9 µM. The TGI [39] was 90 µM, the TGI [42] was 55.2 µM and the TGI [43] was > 100 µM. The TGI [44] was > 100 µM, the TGI [46] was > 100 µM and the TGI [47] was 44.6 µM. For the same molecule, the TGI [48] was > 100 µM, the TGI [49] was > 100 µM and the TGI [50] was 40.1 µM. The TGI [51] was > 100 µM, the TGI [52] was 59.5 µM and the TGI [53] was 92.3 µM. The TGI [54] was > 100 µM, the TGI [55] was > 100 µM and the TGI [57] was 52 µM.

`O=c1oc2ccccc2c(O)c1C(c1ccc2ccccc2c1)c1c(O)c2ccccc2oc1=O` was tested, and the TGI [1] was 80.1 µM, the TGI [2] was 39.2 µM and the TGI [3] was 75.5 µM. The TGI [4] was > 100 µM, the TGI [5] was 31.6 µM and the TGI [6] was > 100 µM. The TGI [7] was 59.7 µM, the TGI [8] was > 100 µM and the TGI [9] was 48.5 µM. The TGI [10] was 41.7 µM, the TGI [11] was 78.2 µM and the TGI [12] was 47.5 µM. For the same molecule, the TGI [13] was 40 µM, the TGI [14] was > 100 µM and the TGI [15] was > 100 µM. For the same molecule, the TGI [58] was 68.8 µM, the TGI [56] was > 100 µM and the TGI [16] was 73.2 µM. It also gave a TGI [17] of 55.1 µM, a TGI [18] of 54.4 µM and a TGI [59] of 32.8 µM. For the same molecule, the TGI [19] was 67.9 µM, the TGI [20] was > 100 µM and the TGI [21] was 68.9 µM. The TGI [22] was > 100 µM, the TGI [23] was > 100 µM and the TGI [24] was > 100 µM. For the same molecule, the TGI [25] was 47.1 µM, the TGI [26] was 33.8 µM and the TGI [27] was 74.7 µM. The TGI [28] was > 100 µM, the TGI [29] was 68.9 µM and the TGI [30] was > 100 µM. For the same molecule, the TGI [31] was > 100 µM, the TGI [32] was > 100 µM and the TGI [33] was 62 µM. The TGI [34] was > 100 µM, the TGI [35] was 90.3 µM and the TGI [36] was > 100 µM. For the same molecule, the TGI [37] was > 100 µM, the TGI [38] was > 100 µM and the TGI [39] was 70.6 µM. For the same molecule, the TGI [40] was > 100 µM, the TGI [41] was 38.5 µM and the TGI [42] was 50.8 µM. It also gave a TGI [43] of 35.4 µM, a TGI [44] of 87.7 µM and a TGI [45] of 60.8 µM. For the same molecule, the TGI [46] was > 100 µM, the TGI [47] was 45.3 µM and the TGI [48] was > 100 µM. The TGI [49] was > 100 µM, the TGI [50] was > 100 µM and the TGI [51] was 54.7 µM. The TGI [52] was 57.5 µM, the TGI [53] was 48.7 µM and the TGI [54] was > 100 µM. For the same molecule, the TGI [55] was 73.2 µM.

For `CC1N(O)C(c2ccccc2)C(c2ccccc2)=[N+]1[O-]` (configuration not stated), the TGI [1] was > 100 µM, the TGI [2] was > 100 µM and the TGI [3] was > 100 µM. The TGI [4] was > 100 µM, the TGI [5] was > 100 µM and the TGI [6] was > 100 µM. The TGI [8] was > 100 µM, the TGI [10] was > 100 µM and the TGI [11] was > 100 µM. For the same molecule, the TGI [12] was > 100 µM, the TGI [13] was > 100 µM and the TGI [14] was > 100 µM. The TGI [15] was > 100 µM, the TGI [58] was > 100 µM and the TGI [56] was > 100 µM. The TGI [16] was > 100 µM, the TGI [17] was > 100 µM and the TGI [18] was > 100 µM. The TGI [59] was > 100 µM, the TGI [19] was > 100 µM and the TGI [20] was > 100 µM. The TGI [21] was > 100 µM, the TGI [22] was > 100 µM and the TGI [23] was > 100 µM. The TGI [24] was > 100 µM, the TGI [25] was > 100 µM and the TGI [26] was > 100 µM. For the same molecule, the TGI [27] was > 100 µM, the TGI [28] was > 100 µM and the TGI [29] was > 100 µM. The TGI [30] was > 100 µM, the TGI [31] was > 100 µM and the TGI [32] was > 100 µM. For the same molecule, the TGI [33] was > 100 µM, the TGI [34] was > 100 µM and the TGI [35] was > 100 µM. The TGI [36] was > 100 µM, the TGI [37] was > 100 µM and the TGI [38] was > 100 µM. For the same molecule, the TGI [39] was > 100 µM, the TGI [41] was > 100 µM and the TGI [43] was > 100 µM. For the same molecule, the TGI [44] was > 100 µM, the TGI [45] was > 100 µM and the TGI [47] was > 100 µM. The TGI [49] was > 100 µM, the TGI [50] was > 100 µM and the TGI [51] was > 100 µM. For the same molecule, the TGI [52] was > 100 µM, the TGI [53] was > 100 µM and the TGI [54] was > 100 µM. The TGI [55] was > 100 µM and the TGI [57] was > 100 µM.
